Laboratory results as given in the supplement of paper PMC10307832.

Tests used:
Test in all cases: relative viability (nuclei count vs DMSO), 5 days (fraction); higher = more cells survive
IU1-47 + Vorinostat = compound: CC1=CC(=C(N1C2=CC=C(C=C2)Cl)C)C(=O)CN3CCCCC3 [IU1-47] + O=C(CCCCCCC(=O)Nc1ccccc1)NO [Vorinostat] (partner 1 µM)
In short: (§1)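 Medians of duplicate plates are given as relative viability. That measure is the nuclei count in treated wells divided by the count in vehicle wells. Counts were taken on 4× images of lung cancer cell lines in 1536-well plates, 5 days after pin-tool dosing the day after seeding with one drug alone or a fixed anchor-drug dose plus five library-drug doses (not always all listed) in √10 steps.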

FG-4592 + Linsitinib = compound: Cc1nc(C(=O)NCC(=O)O)c(O)c2ccc(Oc3ccccc3)cc12 [FG-4592] + C[C@]1(O)C[C@@H](c2nc(-c3ccc4ccc(-c5ccccc5)nc4c3)c3c(N)nccn32)C1 [Linsitinib] (partner 1 µM)
In short: as §1

IU1-47 + OSI-027 = compound: CC1=CC(=C(N1C2=CC=C(C=C2)Cl)C)C(=O)CN3CCCCC3 [IU1-47] + COc1cccc2cc(-c3nc([C@H]4CC[C@H](C(=O)O)CC4)n4ncnc(N)c34)[nH]c12 [OSI-027] (partner 0.5 µM)
In short: as §1

FG-4592 + Navitoclax = compound: Cc1nc(C(=O)NCC(=O)O)c(O)c2ccc(Oc3ccccc3)cc12 [FG-4592] + CC1(C)CCC(c2ccc(Cl)cc2)=C(CN2CCN(c3ccc(C(=O)NS(=O)(=O)c4ccc(N[C@H](CCN5CCOCC5)CSc5ccccc5)c(S(=O)(=O)C(F)(F)F)c4)cc3)CC2)C1 [Navitoclax] (partner 0.5 µM)
In short: as §1

Cell Line	relative viability (IU1-47 + Vorinostat; first compound 0.08 µM)	relative viability (IU1-47 + Vorinostat; first compound 0.253 µM)	relative viability (IU1-47 + Vorinostat; first compound 0.8 µM)	relative viability (IU1-47 + Vorinostat; first compound 2.53 µM)	relative viability (IU1-47 + Vorinostat; first compound 8 µM)	relative viability (FG-4592 + Linsitinib; first compound 0.08 µM)	relative viability (FG-4592 + Linsitinib; first compound 0.253 µM)	relative viability (FG-4592 + Linsitinib; first compound 0.8 µM)	relative viability (FG-4592 + Linsitinib; first compound 2.53 µM)	relative viability (FG-4592 + Linsitinib; first compound 8 µM)	relative viability (IU1-47 + OSI-027; first compound 0.08 µM)	relative viability (IU1-47 + OSI-027; first compound 0.253 µM)	relative viability (IU1-47 + OSI-027; first compound 0.8 µM)	relative viability (IU1-47 + OSI-027; first compound 2.53 µM)	relative viability (IU1-47 + OSI-027; first compound 8 µM)	relative viability (FG-4592 + Navitoclax; first compound 0.08 µM)	relative viability (FG-4592 + Navitoclax; first compound 0.253 µM)	relative viability (FG-4592 + Navitoclax; first compound 0.8 µM)	relative viability (FG-4592 + Navitoclax; first compound 2.53 µM)	relative viability (FG-4592 + Navitoclax; first compound 8 µM)
LOU-NH91	1.09	1.04	0.912	1.04	0.82	0.92	0.83	0.755	0.938	0.907	0.798	0.776	0.728	0.726	0.685	0.709	0.624	0.635	0.711	0.617
LU99A	0.557	0.513	0.5	0.579	0.426	0.488	0.565	0.46	0.483	0.548	0.246	0.303	0.337	0.298	0.317	0.869	0.709	0.75	0.832	0.718
LXF-289	0.699	0.839	0.946	0.751	0.752	0.972	0.947	1.02	0.968	1.02	0.913	0.768	0.811	0.591	0.736	0.956	0.914	1.02	0.936	0.953
NCI-H23	0.661		0.653	0.666	0.622	0.611	0.501	0.635	0.496	0.463	0.644	0.587	0.695	0.583	0.597	0.832	0.786	0.809	0.744	0.708
NCI-H322M	0.935	0.968	0.907	0.894	0.885	0.858	0.914	0.807	0.92	0.861	0.677	0.553	0.632	0.568	0.553	1.3	1.21	1.08	1	1.19
NCI-H441	0.947	0.884	0.764	0.813	0.595	0.451	0.498	0.477	0.57	0.562	0.74	0.724	0.572	0.535	0.676	0.606	1.01	0.573	0.964	0.588
NCI-H460	0.766	0.724	1.05	0.819	0.801	0.708	0.665	0.788	0.766	0.748	0.795	0.737	0.835	0.822	0.505	1.15	1.08	1.25	0.963	0.979
NCI-H520	0.783	0.671	0.681	0.685	0.589	0.85	0.895	1.04	0.953	0.764	0.261	0.27	0.305	0.3	0.206	1.03	1.05	1.05	1.07	0.879
NCI-H596	0.715		0.662	0.658	0.587	1.28	1.01		1.04	0.983	0.817	0.62	0.743	0.814	0.739	0.897	0.914		0.991	0.817
NCI-H647	0.519	0.587	0.691	0.917	0.726	1.18	1.1	1.3	1.32	1.16	0.744	0.605		0.7	0.478	1.16	1.04	1.04	0.961	1.12
NCI-H727	1.26	1.38	1.21	1.13	1.11	0.298	0.307	0.3	0.268	0.271	0.634	0.659	0.724	0.525	0.454	0.537	0.403	0.413	0.63	0.525
NCI-H838	0.768	0.746	0.834	0.689	0.64	1.1	0.941	1.01	1.04	0.938	0.405	0.424	0.428	0.417	0.447	1.27	1.09	1.09	1.2	1.11
NCI-H1355	0.72	0.646	0.674		0.518	0.87	0.778		0.843	0.736	0.396	0.427	0.402		0.395	1.08	0.94		0.901	0.862
NCI-H1395	0.676	0.798	0.611	0.517	0.605	1.06	0.949		1.05	0.824	0.58	0.621	0.665	0.387	0.554	1.37	1.01		1.02	0.958
NCI-H1437	0.807	0.801	0.81	0.735	0.801	0.995	0.976	0.99	0.95	0.786	0.873	0.886	0.92	0.854	0.815	1.07	1.09	1.16	1.01	0.852
NCI-H1651	0.559	0.558	0.556	0.531	0.495	0.986	0.998	0.915	1.09	0.815	0.651	0.717	0.726	0.671	0.622	1.13	0.946	1.08	1.18	0.833
NCI-H1666	0.961	0.984	1.08	1.1	1.03	0.781	0.884	0.769	0.831	0.677	0.914	0.86	0.901	0.879	0.817	1.01	0.674	1.07	0.905	0.879

Cell Line	relative viability (IU1-47 + Vorinostat; first compound 0.08 µM)	relative viability (IU1-47 + Vorinostat; first compound 0.253 µM)	relative viability (IU1-47 + Vorinostat; first compound 0.8 µM)	relative viability (IU1-47 + Vorinostat; first compound 2.53 µM)	relative viability (IU1-47 + Vorinostat; first compound 8 µM)	relative viability (FG-4592 + Linsitinib; first compound 0.08 µM)	relative viability (FG-4592 + Linsitinib; first compound 0.253 µM)	relative viability (FG-4592 + Linsitinib; first compound 0.8 µM)	relative viability (FG-4592 + Linsitinib; first compound 2.53 µM)	relative viability (FG-4592 + Linsitinib; first compound 8 µM)	relative viability (IU1-47 + OSI-027; first compound 0.08 µM)	relative viability (IU1-47 + OSI-027; first compound 0.253 µM)	relative viability (IU1-47 + OSI-027; first compound 0.8 µM)	relative viability (IU1-47 + OSI-027; first compound 2.53 µM)	relative viability (IU1-47 + OSI-027; first compound 8 µM)	relative viability (FG-4592 + Navitoclax; first compound 0.08 µM)	relative viability (FG-4592 + Navitoclax; first compound 0.253 µM)	relative viability (FG-4592 + Navitoclax; first compound 0.8 µM)	relative viability (FG-4592 + Navitoclax; first compound 2.53 µM)	relative viability (FG-4592 + Navitoclax; first compound 8 µM)
NCI-H1734	0.902	0.859	0.778	0.542	0.816	0.896	0.814	0.716	0.875	0.927	0.703	0.659	0.662		0.565	0.854	0.776	0.838	0.814	0.787
NCI-H1755	0.82	0.895	0.799	0.828	0.668	0.993	0.961	0.963	1.04	1.06	0.759	0.876	0.777	0.729	0.686	0.989	0.977	0.937	0.997	1.01
NCI-H1793	0.628		0.77	0.64	0.686	0.732	0.78		1.01	0.856	0.245	0.25	0.37		0.286	0.335	0.384		0.291	0.238
NCI-H1915	0.541	0.572	0.533	0.371	0.509	1.06	1.07	1.19	1.11	1.07	0.614	0.626	0.599		0.581	0.744	0.733	0.838	0.778	0.786
NCI-H1944	0.567	0.59	0.593	0.5	0.524	1.15	1.16	1.01	1.2	1.04	0.401	0.357	0.411	0.444	0.376	1.07	1.03	0.962	1.03	0.907
NCI-H1975	0.733	0.756	0.795	0.664	0.594	1.01	0.902	1.01	0.96	0.752	0.69	0.817	0.779	0.94	0.531	1.21	1.1	1.29	1.1	1.06
NCI-H1993	0.635	0.858	0.819	0.835	0.718	0.808	0.646	0.713	0.728	0.706	0.492	0.586	0.498	0.498	0.567	0.946	0.907	0.696	1.09	0.898
NCI-H2009	0.761	0.783	0.72	0.656	0.668	1.19	1.08	1.28	1.21	1.19	0.662	0.672	0.676	0.558	0.593	1.2	1.18	1.21	1.05	1.22
NCI-H2023	0.699	0.767	0.668	0.497	0.748	0.611	0.575	0.646	0.77	0.685	0.375	0.391	0.436	0.259	0.352	0.991	1	1.12	0.94	0.829
NCI-H2085	0.853	0.861	0.791	0.626	0.76	0.804	0.861	0.758	0.878	0.815	0.724	0.748	0.872	0.531	0.729	1.18	1.09	1.1	1.15	1.08
NCI-H2087	0.902	0.716	0.83	0.723	0.489	0.865	0.713	1.13	0.878	1.14	0.834	0.582	0.506		0.531	1.01	0.946	1.04	0.98	1.03
NCI-H2126	0.895	0.775	0.801	0.478	0.731	0.68	0.73	0.593	0.699	0.655	0.729	0.883	0.673	0.539	0.649	0.825	0.773	0.817	0.875	0.807
NCI-H2228	0.577	0.6	0.725	0.692	0.563	0.586	0.628	0.795	0.612	0.727	0.619	0.581	0.662	0.368	0.39	0.949	0.663	0.896	0.832	0.819
NCI-H2347	0.668	0.628	0.662	0.444	0.528	1.09		0.822	0.927	1.01	0.318	0.456	0.43	0.398	0.375	0.862		0.648	0.804	0.897
NCI-H2405	1.06	1.08	1.14	0.925	1.01		0.583	0.884	0.801	0.72	0.664	0.663	0.695	0.533	0.618		0.437	0.874	0.731	0.711
NCI-H3122	1.29	1.15	1.17	1.06	1.01	0.95	1.03	1.07	1.02	0.816	1.07	0.961	1.05	0.987	0.954	1.03	0.978	0.997	1.03	1.05
